Where two headings read alike, the source gives them in different places.
Tests used:
Cyclooxygenase-2 = target: T1, Cyclooxygenase-2 (Mus musculus, UniProt Q05769); experiment: COX-2 assay: LPS-stimulated PGE2 production in mouse peritoneal macrophages (RIA); format: cell-based, mice; details: for IC50: mouse peritoneal macrophages, LPS 1 mg/L 9 h, PGE2 by RIA; for COX-1/COX-2: ratio of IC50 COX-1 to IC50 COX-2
T1 construct: endogenous in cells; host or cells: thioglycollate-elicited peritoneal macrophages of male C57BL-6J mice
T1 sequence (Q05769 18-604): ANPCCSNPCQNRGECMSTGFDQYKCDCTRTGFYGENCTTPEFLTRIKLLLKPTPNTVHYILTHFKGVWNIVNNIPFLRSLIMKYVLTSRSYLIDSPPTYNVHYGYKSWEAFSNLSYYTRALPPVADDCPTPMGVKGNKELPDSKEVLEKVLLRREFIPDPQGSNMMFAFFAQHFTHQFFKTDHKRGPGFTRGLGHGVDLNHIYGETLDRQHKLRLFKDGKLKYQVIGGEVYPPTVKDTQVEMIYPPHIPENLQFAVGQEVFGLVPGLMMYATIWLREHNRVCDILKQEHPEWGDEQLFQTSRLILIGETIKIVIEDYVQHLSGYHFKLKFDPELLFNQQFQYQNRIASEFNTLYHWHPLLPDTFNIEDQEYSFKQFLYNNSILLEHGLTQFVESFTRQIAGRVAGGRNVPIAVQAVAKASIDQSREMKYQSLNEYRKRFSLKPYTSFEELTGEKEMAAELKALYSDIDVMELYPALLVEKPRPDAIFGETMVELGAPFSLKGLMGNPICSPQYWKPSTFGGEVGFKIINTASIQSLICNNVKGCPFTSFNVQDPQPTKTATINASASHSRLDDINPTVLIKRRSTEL
Description: Cell culture: Adherent macrophages were harvested from the peritoneal cells of male mice (C57BL-6J, Level 2, from Experiment Animal Center, Academy of Military Medical Science) 3 d after the injection (ip) of brewer thioglycollate medium (5 mL/100 g body weight). […] After settlement for 2˜3 h, non-adherent cells were washed by D-Hanks' balanced salt solution. […] Cell viability was examined by trypan blue dye exclusion. All incubation procedures were performed with 5% CO2 in humidified air at 37° C.
COX-2 assay: Macrophages were incubated with test compound at different concentrations or solvent (Me2SO) for 1 h and were stimulated with LPS 1 mg/L for 9 h. The amount of PGE2 in supernatants was measured by RIA. The inhibitory ratio was calculated using the same formula as in COX-1 assay section. Cs, Ct, Cc refer to PGE2 concentration in supernatants of LPS, test compound, and control groups, respectively.
(§1) [formula] Cs, Ct, Cc refer to 6-keto-PGF1[…] concentration in supernatants of calcimycin, test compound, and control groups, respectively.
(§2) Statistical analysis: Data were expressed as the mean±SD of more than three independent experiments. Dose-inhibitory effect curves were fit through “uphill dose response curves, variable slope” using Prism, GraphPad version3.00: […]

[1] = system: rat carrageenan-induced foot pad edema; experiment: Rat carrageenan-induced foot pad edema assay; format: in vivo, rats; details: 10 mg/kg oral
Description: Male Sprgue-Dawley rats (190–220 g) were fasted with free access to water at least 16 h prior to experiments. The rats were dosed orally with a 1 ml suspension of test compound in vehicle (0.5% methyl cellulose and 0.025% Tween-20) or with vehicle alone. One hour later a subplantar injection of 0.1 ml of 1% solution of caarageenan in 0.9% strile saline was administered to the right hind foot pad. Paw volume was measured with a displacement plethysmometer 2, 3, and 4 h after caarageenan injection.

Cyclooxygenase-1 = target: T2, Cyclooxygenase-1 (Mus musculus, UniProt P22437); experiment: COX-1 assay: calcimycin-stimulated 6-keto-PGF1 production in mouse peritoneal macrophages (RIA); format: cell-based, mice; details: calcimycin 1 μmol/L 1 h, 6-keto-PGF1 by RIA
T2 construct: endogenous in cells; host or cells: thioglycollate-elicited peritoneal macrophages of male C57BL-6J mice
T2 sequence (P22437 27-602): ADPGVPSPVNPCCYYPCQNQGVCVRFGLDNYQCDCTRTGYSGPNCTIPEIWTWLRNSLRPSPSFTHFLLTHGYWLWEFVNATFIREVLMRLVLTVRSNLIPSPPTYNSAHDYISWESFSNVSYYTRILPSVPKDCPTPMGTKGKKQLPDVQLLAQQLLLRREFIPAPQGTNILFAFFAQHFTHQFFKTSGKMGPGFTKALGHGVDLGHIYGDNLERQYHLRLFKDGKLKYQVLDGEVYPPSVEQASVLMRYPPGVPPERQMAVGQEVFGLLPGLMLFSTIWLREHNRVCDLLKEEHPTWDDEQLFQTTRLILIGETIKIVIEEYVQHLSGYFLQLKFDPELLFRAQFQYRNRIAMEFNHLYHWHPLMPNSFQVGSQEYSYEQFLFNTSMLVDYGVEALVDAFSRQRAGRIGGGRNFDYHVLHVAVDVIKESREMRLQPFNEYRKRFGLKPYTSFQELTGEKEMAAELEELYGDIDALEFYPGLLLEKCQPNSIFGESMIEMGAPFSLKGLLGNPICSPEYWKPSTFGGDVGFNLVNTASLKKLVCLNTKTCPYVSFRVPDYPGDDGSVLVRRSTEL
Description: Cell culture: Adherent macrophages were harvested from the peritoneal cells of male mice (C57BL-6J, Level 2, from Experiment Animal Center, Academy of Military Medical Science) 3 d after the injection (ip) of brewer thioglycollate medium (5 mL/100 g body weight). Shortly, peritoneal cells obtained from 3˜4 mice were mixed and seeded in 48 well cell culture cluster (Costar) at a cell density of 1×10^9 cell/L in RPMI-1640 supplemented with 5% (v/v) newborn calf serum, 100 ku/L penicillin and […] streptomycin. After settlement for 2˜3 h, non-adherent cells were washed by D-Hanks' balanced salt solution. Then macrophages were cultured in RPMI-1640 without serum. Almost all of adherent cells were macrophages as assessed by Giemsa staining. Cell viability was examined by trypan blue dye exclusion. All incubation procedures were performed with 5% CO2 in humidified air at 37° C.
COX-1: assay Macrophages were incubated with test compound at different concentrations or solvent (Me2SO) for 1 h and were stimulated with calcimycin 1 μmol·L^−1 for 1 h. The amount of 6-keto-PGF1[…] (a stable metabolite of PGI2) in supernatants was measured by RIA according to manufacturer's guide. The inhibitory ratio was calculated as
as §1, §2

[2] = 3 h after carrageenan, read-out: inhibitory percentage of edema, 3 hr
[3] = 4 h after carrageenan, read-out: inhibitory percentage of edema, 4 hr

Compound | IC50 (Cyclooxygenase-2) | IC50 (Cyclooxygenase-1) | COX-1/COX-2 (Cyclooxygenase-2) | inhibition at 10 mg/kg [1, 2] | inhibition at 10 mg/kg [1, 3]
CCCN1CC(c2ccc(S(C)(=O)=O)cc2)=C(c2ccc(F)cc2)C1=O [Example 123, N-Propyl-3-(4-fluorophenyl)-4-(4-methylsulfonylphenyl)-2,5-dihydropyrrole-2-one] | 28.6 nM | 502 nM | – | 49.6% | 50.3%
CCCN1CC(c2ccc(S(C)(=O)=O)cc2)=C(c2ccccc2)C1=O [Example 115, N-Propyl-3-phenyl-4-(4-methylsulfonylphenyl)-2,5-dihydropyrrole-2-one] | 19.5 nM | 149 nM | 7.6 | 22.8% | 27.2%
Cc1ccc(C2=C(c3ccc(S(C)(=O)=O)cc3)CN(C3CC3)C2=O)cc1 [Example 125, N-Cyclopropyl-3-(4-methylphenyl)-4-(4-methylsulfonylphenyl)-2,5-dihydropyrrole-2-one] | 94.8 nM | 236 nM | 2.5 | 34.1% | 31.1%
CS(=O)(=O)c1ccc(C2=C(c3cccc(Cl)c3)CN(C3CC3)C2=O)cc1 [Example 108, N-Cyclopropyl-3-(4-methylsulfonylphenyl)-4-(3-chlorophenyl)-2,5-dihydropyrrole-2-one] | 783 nM | > 10000 nM | – | 36.4% | 43.5%

More lines, main results first:

IC50 (Cyclooxygenase-2) | IC50 (Cyclooxygenase-1) | COX-1/COX-2 (Cyclooxygenase-2) | Compound | inhibition at 10 mg/kg [1, 2] | inhibition at 10 mg/kg [1, 3]
782 nM | > 10000 nM | – | Cc1ccc(C2=C(c3ccc(S(C)(=O)=O)cc3)C(=O)N(C)C2)cc1 [Example 105, N-Methyl-3-(4-methylsulfonylphenyl)-4-(4-methylphenyl)-2,5-dihydropyrrole-2-one] | 39.2% | 48.2%
11.8 nM | 57.2 nM | 4.9 | CN1CC(c2ccc(S(C)(=O)=O)cc2)=C(c2ccc(Br)cc2)C1=O [Example 119, N-Methyl-3-(4-bromophenyl)-4-(4-methylsulfonylphenyl)-2,5-dihydropyrrole-2-one] | 48% | 49.8%
15 nM | 91.3 nM | – | CCCN1CC(c2ccc(S(C)(=O)=O)cc2)=C(c2ccc(C)cc2)C1=O [Example 122, N-Propyl-3-(4-methylphenyl)-4-(4-methylsulfonylphenyl)-2,5-dihydropyrrole-2-one] | 57.2% | 59.3%
24.2 nM | 159 nM | 6.6 | CN1CC(c2ccc(S(C)(=O)=O)cc2)=C(c2ccc(Cl)cc2)C1=O [Example 117, N-Methyl-3-(4-chlorophenyl)-4-(4-methylsulfonylphenyl)-2,5-dihydropyrrole-2-one] | 48.2% | 59.3%

From patent US7112605B2, “Sulfonyl-containing 3,4-diaryl-3-pyrrolin-2-ones, preparation method, and medical use thereof” (Research Institute of Materia Medica Chinese Acadamy of …, priority 2002, dated 2006)
